What was measured:
HEK293 cells [1] = assay: Preliminary screening as DNA vectors, GFP transfection of HEK293 cells; format: cell-based; details: HEK293 cells; lipid/DOPE liposome with 75 ng plasmid DNA (psin-EGFP-IRES-Puro); number of cells expressing GFP divided by total number of nuclei (Hoechst)
Outline: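 First, amino lipid and DOPE were vortexed in sodium acetate buffer (pH 5.6) to form liposomes. Next, these were held with 75 ng EGFP plasmid at room temperature for 30 min. Finally, HEK293 cells were added, cultured at 37° C., Hoechst-stained, and GFP+/total nuclei scored by imaging.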

HEK293 cells [2] = assay: Preliminary screening as mRNA vectors, EGFP mRNA transfection of HEK293 cells; format: cell-based; details: HEK293 cells, 96-well plates, EGFP mRNA 50 ng per well; percentage of GFP fluorescent cells relative to total number of cells (Hoechst)
Outline: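 Screening format: EGFP mRNA transfection (50 ng/well) into HEK293 in 10% FBS-supplemented DMEM. Percent green fluorescent cells, normalised to Hoechst nuclear count, gave the value; Lipofectamine2000 was the reference transfectant.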

Row | SMILES | Absolute DNA transfection efficiency in HEK293 cells (HEK293 cells [1]) | Absolute mRNA transfection efficiency in HEK293 cells (HEK293 cells [2])
1 | CCCCCCCCCCCCCCCCCCSc1nc(NCCN(CC)CC)nc(SCCCCCCCCCCCCCCCC)n1 [Compound S16S18D7] | 1.0% | 1.8%
2 | CCCCCCCCCCCCCCCCCCNc1nc(NCCCCCCCCCCC)nc(NCCCN2CCOCC2)n1 [Compound N11N18D8] | 2.2% | 1.2%
3 | CCCCCCCCNc1nc(NCCCCCCCC)nc(NCCCN(C)C)n1 [Compound N8N8D6] | 0.0% | 0.0%
4 | CCCCCCCCCCCCCCCCCCNc1nc(NCCCCCCCCC)nc(NCCN(CC)CC)n1 [Compound N9N18D7] | 3.0% | 0.6%
5 | CCCCCCCCCCCCCNc1nc(NCCCN(C)C)nc(N(CCCCCCCCCCCC)CCCCCCCCCCCC)n1 [N13^2N12D6] | 1.3% | 3.9%
6 | CCCCCCCCCCCCCCCCCCNc1nc(NCCCCCCCCCCCCCCCC)nc(NCCN2CCN(C)CC2)n1 [Compound N16N18D5] | 1.1% | 0.0%
7 | CCCCCCCCCCCNc1nc(NCCCCCC)nc(NCCN(C)C)n1 [Compound N6N11D1] | 0.0% | 0.1%
8 | CCCCCCCCCCCCCCCCCCSc1nc(NCCN2CCCCC2)nc(SCCCCCCCCCCCCCCC)n1 [Compound S15S18D4] | 0.3% | 0.0%
9 | CCCCCCCCCCCCCCCCCCNc1nc(NCCCCCCCCCCCC)nc(NCCN(CC)CC)n1 [Compound N12N18D7] | 1.2% | 1.4%
10 | CCCCCCCCCCCCCCCCSc1nc(NCCN2CCCCC2)nc(SCCCCCCCCCCC)n1 [Compound S11S16D4] | 1.7% | 0.2%
11 | CCCCCCCCCCCCSc1nc(NCCN(C)C)nc(SCCCCCCCCCC)n1 [Compound S10S12D1] | 6.6% | 0.0%
12 | CCCCCCCCCCCCCNc1nc(NCCN2CCOCC2)nc(N(CCCCCCCCCCCC)CCCCCCCCCCCC)n1 [N13^2N12D2] | 0.1% | 0.5%
13 | CCCCCCCCCCCNc1nc(NCCCCCCCCCCC)nc(NCCCN2CCOCC2)n1 [Compound N11N11D8] | 0.0% | 1.5%
14 | CCCCCCCCCCCCCNc1nc(NCCCCCCCCCCCCC)nc(NCCN(C)C)n1 [Compound N13N13D1] | 1.5% | 0.4%
15 | CCCCCCCCCNc1nc(NCCCCCC)nc(NCCCN2CCN(C)CC2)n1 [Compound N6N9D9] | 0.0% | 0.0%
16 | CCCCCCCCCCCCNc1nc(NCCCCCCC)nc(NCC2CCN(C)CC2)n1 [Compound N7N12D10] | 1.4% | 0.8%
17 | CCCCCCCCNc1nc(NCCCCCC)nc(NCCN2CCCC2)n1 [Compound N6N8D3] | 0.1% | 0.4%
18 | CCCCCCCCCCCCCNc1nc(NCCN(CC)CC)nc(N(CCCCCCCCCCCC)CCCCCCCCCCCC)n1 [N13^2N12D7] | 0.2% | 2.9%
19 | CCCCCCCCCCCCCCCSc1nc(NCCCN2CCN(C)CC2)nc(SCCCCCCCCCCC)n1 [Compound S11S15D9] | 1.8% | 3.6%
20 | CCCCCCCCCCCSc1nc(NCCN(C)C)nc(SCCCCCCCCCC)n1 [Compound S10S11D1] | 7.0% | 1.2%
21 | CCCCCCCCCCCCCCCCCCSc1nc(NCCN2CCOCC2)nc(SCCCCCCCCCC)n1 [Compound S10S18D2] | 1.6% | 0.2%
22 | CCCCCCCCCCCCCCCCNc1nc(NCCCCCCCCCCCCCCC)nc(NCCN2CCN(C)CC2)n1 [Compound N15N16D5] | 0.7% | 0.0%
23 | CCCCCCCCCCCCCCCCCCNc1nc(NCCCCCCCC)nc(NCCCN2CCOCC2)n1 [Compound N8N18D8] | 1.3% | 2.8%
24 | CCCCCCCCCCCCCCCNc1nc(NCCCCCCC)nc(NCCN2CCCC2)n1 [Compound N7N15D3] | 5.2% | 3.8%

Row | SMILES | Absolute DNA transfection efficiency in HEK293 cells (HEK293 cells [1]) | Absolute mRNA transfection efficiency in HEK293 cells (HEK293 cells [2])
25 | CCCCCCCCCCCCCCCSc1nc(NCCN2CCN(C)CC2)nc(SCCCCCCCCCCC)n1 [Compound S11S15D5] | 4.8% | 17.4%
26 | CCCCCCCCCCCCCCCNc1nc(NCCCCCCCCCCC)nc(NCCN2CCCC2)n1 [Compound N11N15D3] | 0.3% | 2.7%
27 | CCCCCCCCCCCCCCCNc1nc(NCCCCCCCCCCCCCCC)nc(NCCN(C)C)n1 [Compound N15N15D1] | 2.3% | 0.0%
28 | CCCCCCCCCCCCCCCNc1nc(NCCCCCC)nc(NCCN2CCCCC2)n1 [Compound N6N15D4] | 0.1% | 0.0%
29 | CCCCCCCCCCCCCCCCSc1nc(NCCCN(C)C)nc(SCCCCCCCCCC)n1 [Compound S10S16D6] | 14.1% | 41.6%
30 | CCCCCCCCCCCCCCCCCCSc1nc(NCCN2CCN(C)CC2)nc(SCCCCCCCCCCCCCCCC)n1 [Compound S16S18D5] | 1.7% | 0.3%
31 | CCCCCCCCCCCCCCCNc1nc(NCCCCCCC)nc(NCC2CCN(C)CC2)n1 [Compound N7N15D10] | 0.6% | 2.5%
32 | CCCCCCCCCCCCCCCCCCSc1nc(NCCN(CC)CC)nc(SCCCCCCCCCCCCCC)n1 [Compound S14S18D7] | 0.9% | 2.7%
33 | CCCCCCCCCCCCCNc1nc(NCCCCCCCC)nc(NCCCN2CCOCC2)n1 [Compound N8N13D8] | 0.0% | 0.2%
34 | CCCCCCCCCCCCCNc1nc(NCCCCCC)nc(NCCCN2CCOCC2)n1 [Compound N6N13D8] | 0.0% | 0.0%
35 | CCCCCCCCCCCCCCCNc1nc(NCCCCCCCCCCCCCCC)nc(NCC2CCN(C)CC2)n1 [Compound N15N15D10] | 1.1% | 4.2%
36 | CCCCCCCCCCCCCCCNc1nc(NCC2CCN(C)CC2)nc(N(CCCCCCCCCCCC)CCCCCCCCCCCC)n1 [N15^2N12D10] | 0.0% | 3.5%
37 | CCCCCCCCCCCCCNc1nc(NCCCCCC)nc(NCCN2CCCC2)n1 [Compound N6N13D3] | 0.5% | 1.0%
38 | CCCCCCCCCCCCCCCCCCNc1nc(NCCCCCCCCCCCCCCC)nc(NCCN2CCN(C)CC2)n1 [Compound N15N18D5] | 0.0% | 0.0%
39 | CCCCCCCCCCCCCCSc1nc(NCCN(CC)CC)nc(SCCCCCCCCCCC)n1 [Compound S11S14D7] | 2.9% | 0.7%
40 | CCCCCCCCCCCCCCCCCCSc1nc(NCCCN2CCN(C)CC2)nc(SCCCCCCCCCCCCCCCC)n1 [Compound S16S18D9] | 0.4% | 0.5%
41 | CCCCCCCCCCCCCCSc1nc(NCCCN(C)C)nc(SCCCCCCCCCC)n1 [Compound S10S14D6] | 26.9% | 48.6%
42 | CCCCCCCCCCCCCCCCNc1nc(NCCCCCC)nc(NCCN2CCOCC2)n1 [Compound N6N16D2] | 0.0% | 0.1%
43 | CCCCCCCCCCCCCNc1nc(NCCCCCCCCCCCCC)nc(NCCN2CCOCC2)n1 [Compound N13N13D2] | 0.0% | 0.9%
44 | CCCCCCCCCCCCN(CCCCCCCCCCCC)c1nc(NCCCCCC)nc(NCCN(CC)CC)n1 [N6^2N12D7] | 0.1% | 0.3%
45 | CCCCCCCCCSc1nc(NCCCN(C)C)nc(SCCCCCCCCC)n1 [Compound S9S9D6] | 5.6% | 33.0%
46 | CCCCCCCCCNc1nc(NCCCCCCCC)nc(NCCN2CCCCC2)n1 [Compound N8N9D4] | 0.0% | 0.0%
47 | CCCCCCCCCCCCCCCCNc1nc(NCCCCCCC)nc(NCCN(C)C)n1 [Compound N7N16D1] | 0.9% | 0.5%
